Source: US20220409727A1, “Metal Complexes Bearing Bisstyryl-Bipyridine Ligand and Their Use as Photosensitizer Agent in One and Two-Photon Photodynamic Therapy” (Paris Sciences et Lettres, priority 2019, published 2022)
Like-named read-outs stand apart in the source and are kept apart here.

Experiments:
[1] = Singlet oxygen measurement, direct evaluation (1O2 luminescence at 1270 nm); assay type: physicochemical
Procedure, shortened: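 Air-saturated CH3CN or D2O solutions (A450 = 0.2) irradiated with 450 nm LED at varied intensities; 1O2 emission at 1270 nm recorded 1100–1400 nm with cooled germanium detector. Quantum yield from slope of integrated peak area versus intensity, absorbance-corrected, relative to Rose Bengal (Φ=76%).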

HeLa MCTS = test: (Photo-)cytotoxicity on 3D multicellular tumor spheroids (ATP, CellTiter-Glo 3D); assay type: cell-based, human; conditions: for phototoxicity in HeLa MCTS: 1 Photon and 2 Photons irradiation, compared with compounds 4-6, 8, 10; for PI (1-Photon): dark vs 1-Photon irradiation (500 nm, 10 J/cm^2); for PI (2-Photon): dark vs 2-Photon irradiation (800 nm, 10 J/cm^2)
Procedure, shortened: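 HeLa spheroids grown on agarose from 3000 cells/well over 2–3 days, then treated with compound (2% DMSO) for 12 h. Spheroids kept dark or irradiated at 500 nm one-photon or 800 nm two-photon (10 J/cm^2 each), then incubated 48 h more. Viability read as ATP by luminescence.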

[2] = Singlet oxygen measurement, indirect evaluation (RNO absorbance); assay type: physicochemical
Procedure, shortened: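 Complex (absorbance 0.2 in air-saturated CH3CN with RNO 24 μM, imidazole 12 mM; or 0.1 in air-saturated PBS with RNO 20 μM, histidine 10 mM) irradiated for varying times. RNO bleaching (A0−A) at 420 nm (CH3CN) or 440 nm (PBS) plotted against time; slope with absorbance correction gives singlet oxygen quantum yield.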

[3] = tested on: mouse colon carcinoma (CT-26) cells; test: (Photo-)cytotoxicity on 2D cell monolayers, resazurin assay, CT-26; conditions: for PI (480 nm): CT-26, dark vs 480 nm (10 min, 3.1 J/cm^2); for PI (540 nm): CT-26, dark vs 540 nm (40 min, 9.5 J/cm^2); for IC50: compounds 1-3 as chloride salts
[4] = tested on: human glioblastoma astrocytoma (U373) cells; test: (Photo-)cytotoxicity on 2D cell monolayers, resazurin assay, U373; conditions: for PI (480 nm): U373, dark vs 480 nm (10 min, 3.1 J/cm^2); for PI (540 nm): U373, dark vs 540 nm (40 min, 9.5 J/cm^2); for IC50: compounds 1-3 as chloride salts
Method: The human glioblastoma astrocytoma (U373) cell line was cultured in MEM medium supplemented with 10% FBS, 1% NEAA (non-essential amino-acids) and 1% penicillin/streptomycin. […] The human retinal epithelial cells (RPE-1, non-cancerous cells immortalized with hTERT) were cultured in DMEM-F12 medium supplemented with 10% FBS and 1% penicillin/streptomycin. All cell lines were obtained from the American Type Culture Collection (ATCC) and cultured at 37° C. and 5% CO2. Before an experiment, the cells were passaged three times.
The cytotoxicity of the compounds was assessed by measuring cell viability using a fluorometric resazurin assay. The cultivated cells were seeded in triplicates in 96 well plates with a density of 4000 cells per well in 100 μL of media. After 24 h, the medium was removed and the cells were treated with increasing concentrations of the compound diluted in cell media achieving a total volume of 200 μL. The cells were incubated with the compound for 4 h. After this time, the media was removed and replaced with 200 μL of fresh medium. For the phototoxicity studies, the cells were exposed to light with an Atlas Photonics LUMOS BIO irradiator. Each well was constantly illuminated with either a 480 nm or 540 nm irradiation. During this time, the temperature was maintained constantly at 37° C. The cells were grown in the incubator for additional 44 h. For the determination of the dark cytotoxicity, the cells were not irradiated and after the medium exchange directly incubated for 44 h. After this time, the medium was replaced with fresh medium containing resazurin with a final concentration of 0.2 mg/mL. After 4 h incubation, the amount of the fluorescent product resorufin was determined upon excitation at 540 nm and measurement its emission at 590 nm using a SpectraMax M2 Microplate Reader (Molecular Devices).
The obtained data was analyzed with the GraphPad Prism software.

[5] = tested on: human cervical carcinoma (HeLa) cells; test: (Photo-)cytotoxicity on 2D cell monolayers, resazurin assay, HeLa; assay type: cell-based; conditions: for PI (480 nm): dark vs 480 nm (10 min, 3.1 J/cm^2); for PI (540 nm): dark vs 540 nm (40 min, 9.5 J/cm^2)
Excerpt: Before an experiment, the cells were passaged three times.

[6] = 1-Photon irradiation (500 nm, 10 J/cm^2), read-out: IC50 1-Photon irradiation (500 nm, 10 J/cm^2)
[7] = 2-Photon irradiation (800 nm, 10 J/cm^2, section interval of 5 μm), read-out: IC50 2-Photon irradiation (800 nm, 10 J/cm^2)
[8] = dark, 12 h incubation, read-out: IC50 dark
[9] = read-out: IC50 540 nm (40 min, 9.5 J/cm^2), CT-26, irradiation 540 nm (40 min, 9.5 J/cm^2)
[10] = read-out: IC50 dark, CT-26, dark, 4 h incubation
[11] = read-out: IC50 480 nm (10 min, 3.1 J/cm^2), U373, irradiation 480 nm (10 min, 3.1 J/cm^2)
[12] = read-out: IC50 dark, U373, dark, 4 h incubation
[13] = dark, 4 h incubation, compounds 1-3 as chloride salts, read-out: IC50 dark
[14] = read-out: IC50 480 nm (10 min, 3.1 J/cm^2), irradiation 480 nm (10 min, 3.1 J/cm^2), compounds 1-3 as chloride salts
[15] = read-out: IC50 540 nm (40 min, 9.5 J/cm^2), irradiation 540 nm (40 min, 9.5 J/cm^2), compounds 1-3 as chloride salts

Row | Compound | Singlet oxygen quantum yield, direct 450 nm CH3CN [1] [%] | IC50 (HeLa MCTS; [6]) [µM] | IC50 (HeLa MCTS; [7]) [µM] | PI (1-Photon) (HeLa MCTS) | PI (2-Photon) (HeLa MCTS) | IC50 (HeLa MCTS; [8]) [µM] | Singlet oxygen quantum yield, indirect 450 nm CH3CN ([2]; CH3CN) [%] | Singlet oxygen quantum yield, indirect 450 nm PBS [2] [%] | Singlet oxygen quantum yield, indirect 540 nm CH3CN ([2]; CH3CN) [%] | Singlet oxygen quantum yield, indirect 540 nm PBS [2] [%] | PI (480 nm) [3] | PI (540 nm) [3] | IC50 [3, 9] [µM] | IC50 [3, 10] [µM] | PI (480 nm) [4] | PI (540 nm) [4] | IC50 [4, 11] [µM] | IC50 [4, 12] [µM] | PI (480 nm) [5] | PI (540 nm) [5] | other results
1 | [Ru(bipy)2((E,E′)-4,4′-Bis[p-(N,N-methoxy)styryl]-2,2′-bipyridine)][PF6]2 [Compound 7] | 75 | 6.8 ± 0.2 | 1.4 ± 0.2 | >44.1 | >214.3 | > 300 | 77 | 11 | 68 | 10 | >142.9 | >111.1 | 0.9 ± 0.3 | > 100 | >9.5 | >7.4 | 10.5 ± 1.7 | > 100 | >83.3 | >66.7 | phototoxicity in HeLa MCTS (HeLa MCTS): much higher phototoxicity; singlet oxygen quantum yields in CH3CN ([2]; CH3CN, range over direct and indirect methods, 450 and 540 nm): 68-77%; singlet oxygen quantum yields in an aqueous solution ([2]; aqueous solution (PBS), range over 450 and 540 nm): 10-11%; IC50 [5, 13]: > 100 µM; IC50 [5, 14]: 1.2 ± 0.4 µM; IC50 [5, 15]: 1.5 ± 0.5 µM
2 | COc1ccc(C=Cc2ccnc(-c3cc(C=Cc4ccc(OC)cc4)ccn3)c2)cc1.F[P-](F)(F)(F)(F)F.F[P-](F)(F)(F)(F)F.[Ru+2].c1ccc(-c2ccnc3c2ccc2c(-c4ccccc4)ccnc23)cc1.c1ccc(-c2ccnc3c2ccc2c(-c4ccccc4)ccnc23)cc1 [Compound 11, [Ru(4,7-Diphenyl-1,10-phenanthroline)2((E,E′)-4,4′-Bis[p-methoxystyryl]-2,2′-bipyridine)][PF6]2] | 66 | 3.8 ± 0.4 | 0.8 ± 0.5 | 7.7 | 36.6 | 29.3 ± 2.9 | 73 | 7 | 72 | 5 | 17.2 | 14.3 | 0.6 ± 0.2 | 8.6 ± 0.9 | 20.6 | 26.4 | 0.9 ± 0.2 | 18.5 ± 1 | 27.5 | 23.6 | phototoxicity in HeLa MCTS (HeLa MCTS): much higher phototoxicity; IC50 [5, 13]: 16.5 ± 0.8 µM; IC50 [5, 14]: 0.6 ± 0.3 µM; IC50 [5, 15]: 0.7 ± 0.5 µM
3 | CN(C)c1ccc(/C=C/c2ccnc(-c3cc(/C=C/c4ccc(N(C)C)cc4)ccn3)c2)cc1.CN(C)c1ccc(/C=C/c2ccnc(-c3cc(/C=C/c4ccc(N(C)C)cc4)ccn3)c2)cc1.F[P-](F)(F)(F)(F)F.F[P-](F)(F)(F)(F)F.[Ru+2].c1ccc(-c2ccccn2)nc1 [Compound 4, [Ru(bipy)((E,E′)-4,4′-Bis[p-(N,N-dimethylamino)styryl]-2,2′-bipyridine)2][PF6]2] | 34 | 78.3 ± 5.1 | 63 ± 4.2 | >1.3 | >1.6 | > 100 | 40 | 2 | 37 | 3 | >13.7 | >10.4 | 9.6 ± 1.9 | > 100 | >7.0 | >5.3 | 14.3 ± 2.4 | > 100 | >11.8 | >9.4 | IC50 [5, 13]: > 100 µM; IC50 [5, 14]: 8.5 ± 1.2 µM; IC50 [5, 15]: 10.6 ± 2.2 µM
4 | CN(C)c1ccc(/C=C/c2ccnc(-c3cc(/C=C/c4ccc(N(C)C)cc4)ccn3)c2)cc1.F[P-](F)(F)(F)(F)F.F[P-](F)(F)(F)(F)F.[Ru+2].c1ccc(-c2ccnc3c2ccc2c(-c4ccccc4)ccnc23)cc1.c1ccc(-c2ccnc3c2ccc2c(-c4ccccc4)ccnc23)cc1 [Compound 10, [Ru(4,7-Diphenyl-1,10-phenanthroline)2((E,E′)-4,4′-Bis[p-(N,N-dimethylamino)styryl]-2,2′-bipyridine)][PF6]2] | 51 | 8.9 ± 0.7 | 3.1 ± 0.6 | 3.1 | 9.0 | 27.8 ± 3.6 | 48 | 2 | 43 | 2 | 4.0 | 4.7 | 1.1 ± 0.4 | 5.2 ± 0.8 | 7.6 | 6.5 | 1.8 ± 0.3 | 13.7 ± 1.1 | 6.7 | 6.3 | IC50 [5, 13]: 10.7 ± 1.4 µM; IC50 [5, 14]: 1.6 ± 0.3 µM; IC50 [5, 15]: 1.7 ± 0.4 µM
5 | COc1ccc(/C=C/c2ccnc(-c3cc(/C=C/c4ccc(OC)cc4)ccn3)c2)cc1.F[P-](F)(F)(F)(F)F.F[P-](F)(F)(F)(F)F.[Ru+2].c1cnc2c(c1)ccc1cccnc12.c1cnc2c(c1)ccc1cccnc12 [Compound 9, [Ru(phen)2((E,E′)-4,4′-Bis[p-methoxystyryl]-2,2′-bipyridine)][PF6]2] | 75 | 7.5 ± 0.2 | 1.2 ± 0.3 | >40.0 | >250.0 | > 300 | 82 | 9 | 79 | 8 | >90.9 | >111.1 | 0.9 ± 0.4 | > 100 | >40.0 | >47.6 | 2.5 ± 0.9 | > 100 | >66.7 | >83.3 | phototoxicity in HeLa MCTS (HeLa MCTS): much higher phototoxicity; IC50 [5, 13]: > 100 µM; IC50 [5, 14]: 1.5 ± 0.6 µM; IC50 [5, 15]: 1.2 ± 0.7 µM
